According to ChEMBL document CHEMBL1201862, “PubChem BioAssay data set” (2004):
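Dose response: 5 concentrations. Exposure: 48 h. Format: 96-well plates. Endpoint: linear interpolation; highest concentration if not reached. Here, GI50 denotes the concentration required for 50% inhibition of growth.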 Activity calls are given as the source filed them. No stated cut-off is given here; in the data, active = GI50 up to about 1.1 µM and inactive = higher.

Legend:
Experiment in all cases: growth of human tumour cells (NCI), 48 h
786-0 = test system: 786-0
OVCAR-8 = test system: OVCAR-8
SF-268 = test system: SF-268
U-251 = test system: U-251
Hs-578T = test system: Hs-578T
IGROV-1 = test system: IGROV-1
UACC-257 = test system: UACC-257
ACHN = test system: ACHN
CCRF-CEM = test system: CCRF-CEM
RPMI-8226 = test system: RPMI-8226
MDA-N = test system: MDA-N
MOLT-4 = test system: MOLT-4
A549 = test system: A549
SK-MEL-5 = test system: SK-MEL-5
OVCAR-3 = test system: OVCAR-3
CAKI-1 = test system: CAKI-1
HOP-62 = test system: HOP-62
SF-539 = test system: SF-539
DU-145 = test system: DU-145
SNB-19 = test system: SNB-19
HT-29 = test system: HT-29
Malme-3M = test system: Malme-3M
SNB-75 = test system: SNB-75
SK-MEL-2 = test system: SK-MEL-2
K562 = test system: K562
OVCAR-5 = test system: OVCAR-5
SN12C = test system: SN12C
M14 = test system: M14
A498 = test system: A498
HCC 2998 = test system: HCC 2998
SW-620 = test system: SW-620
HL-60 = test system: HL-60
NCI/ADR-RES = test system: NCI/ADR-RES
BT-549 = test system: BT-549
NCI-H226 = test system: NCI-H226
KM12 = test system: KM12
MDA-MB-231 = test system: MDA-MB-231
NCI-H460 = test system: NCI-H460
LOX IMVI = test system: LOX IMVI
HCT-116 = test system: HCT-116
EKVX = test system: EKVX
TK-10 = test system: TK-10
UO-31 = test system: UO-31
PC-3 = test system: PC-3
COLO 205 = test system: COLO 205
UACC-62 = test system: UACC-62
OVCAR-4 = test system: OVCAR-4
HOP-92 = test system: HOP-92
SF-295 = test system: SF-295
SK-OV-3 = test system: SK-OV-3
SK-MEL-28 = test system: SK-MEL-28
RXF 393 = test system: RXF 393
NCI-H522 = test system: NCI-H522
MCF7 = test system: MCF7
MDA-MB-435 = test system: MDA-MB-435
HCT-15 = test system: HCT-15
NCI-H23 = test system: NCI-H23

Q: Which results are given for `COc1ccccc1C(=O)c1c(NCc2ccccc2)c(=O)c1=O`?
A: GI50 (786-0): 40.2 µM (inactive); GI50 (OVCAR-8): > 100 µM (inactive); GI50 (SF-268): > 100 µM (inactive); GI50 (U-251): 66.4 µM (inactive); GI50 (Hs-578T): > 100 µM (inactive); GI50 (IGROV-1): 9.55 µM (inactive); GI50 (UACC-257): > 100 µM (inactive); GI50 (ACHN): > 100 µM (inactive); GI50 (CCRF-CEM): 26.1 µM (inactive); GI50 (RPMI-8226): 32.9 µM (inactive); GI50 (MDA-N): > 100 µM (inactive); GI50 (MOLT-4): 23.4 µM (inactive); GI50 (A549): 0.424 µM (active); GI50 (SK-MEL-5): > 100 µM (inactive); GI50 (OVCAR-3): > 100 µM (inactive); GI50 (CAKI-1): 35.2 µM (inactive); GI50 (HOP-62): > 100 µM (inactive); GI50 (SF-539): 0.0841 µM (active); GI50 (DU-145): > 100 µM (inactive); GI50 (SNB-19): > 100 µM (inactive); GI50 (HT-29): > 100 µM (inactive); GI50 (Malme-3M): 23.4 µM (inactive); GI50 (SNB-75): > 100 µM (inactive); GI50 (SK-MEL-2): > 100 µM (inactive); GI50 (K562): 27.5 µM (inactive); GI50 (OVCAR-5): > 100 µM (inactive); GI50 (SN12C): > 100 µM (inactive); GI50 (M14): > 100 µM (inactive); GI50 (A498): > 100 µM (inactive); GI50 (HCC 2998): > 100 µM (inactive); GI50 (SW-620): 18.2 µM (inactive); GI50 (HL-60): 21 µM (inactive); GI50 (NCI/ADR-RES): > 100 µM (inactive); GI50 (BT-549): 66.8 µM (inactive); GI50 (NCI-H226): > 100 µM (inactive); GI50 (KM12): > 100 µM (inactive); GI50 (MDA-MB-231): > 100 µM (inactive); GI50 (NCI-H460): > 100 µM (inactive); GI50 (LOX IMVI): 29.9 µM (inactive); GI50 (HCT-116): > 100 µM (inactive); GI50 (EKVX): > 100 µM (inactive); GI50 (TK-10): > 100 µM (inactive); GI50 (UO-31): > 100 µM (inactive); GI50 (PC-3): > 100 µM (inactive); GI50 (COLO 205): 28.3 µM (inactive); GI50 (UACC-62): > 100 µM (inactive); GI50 (OVCAR-4): > 100 µM (inactive); GI50 (HOP-92): > 100 µM (inactive); GI50 (SF-295): > 100 µM (inactive); GI50 (SK-OV-3): > 100 µM (inactive); GI50 (SK-MEL-28): 18.1 µM (inactive); GI50 (RXF 393): 0.0708 µM (active); GI50 (NCI-H522): 11.5 µM (inactive); GI50 (MCF7): 0.0254 µM (active); GI50 (MDA-MB-435): > 100 µM (inactive); GI50 (HCT-15): 27.4 µM; GI50 (NCI-H23): > 100 µM (inactive)
